Experiments:
[1] = molecular target: T1, His-p51/FLAG-p66 RT heterodimer (Human immunodeficiency virus type 1 group M subtype B, UniProt P12497); assay: Microplate eTag assay to monitor p66-p51 RT dimerization, in the presence of drugs; type: binding; conditions: drug concentration varied from 0 μM to 100 μM; released eTag quantitated; read-out: IC50 (heterodimerization of p66 and p51)
T1 construct: The gene for the 66 kDa subunit of HIV-1 RT; The gene for the 51 kDa subunit of HIV-1 RT; made in house; host or cells: E. coli
Protocol: The assay was performed by first capturing His-tagged p51 on Ni^2+-NTA microplates, and then adding FLAG-tagged p66 to form the heterodimer. To the heterodimer complex was added a solution of eTag covalently linked to FLAG antibodies resulting His-p51/FLAG-p66 RT heterodimer complexed to an eTag immobilized on the microplates. After washing to remove unbound material, the eTag was cleaved by the addition of methylene blue, and the amount of released eTags was measured and quantitated by electrophoretic separation.

[2] = molecular target: T2, heterodimerization of p66 and p51 (Human immunodeficiency virus type 1 group M subtype B, UniProt P12497); conditions: literature comparison values; cited from earlier work
T2 construct: active form of HIV-1 RT is a heterodimer containing two polypeptides, p66 and p51

Substance | IC50 [1] [µM] | IC50 [2] [µM]
[2′,5′-bis-o-(butyldimethylsilyl)-3′-spiro 5′-(4′-amino-1′,2′-oxothiole-2′,2′-dioxide] [TSAO] | 6.4 | 6.7
calmodulin [CAM] | 3.7 | 1.9

— patent US20120003667A1, “ELECTROPHORETIC TAG-BASED IN VITRO ASSAY TO QUANTIFY DIMERIZATION OF P66 AND P51 SUB-UNITS OF HIV-1 REVERSE TRANSCRIPTASE (RT)” (priority 2007, published 2012)
